The source of these data is US11247976B2, “Synthetic ligands that modulate the activity of the RhlR quorum sensing receptor” (Wisconsin Alumni Research Foundation, priority 2016, dated 2022).

Series [1] deals with T1, RhlR (Pseudomonas aeruginosa, UniProt P54292).
T1 construct: expressed in transfected cells; host or cells: E. coli JLD271 (ΔsdiA) with pJN105R2 (arabinose-induced) and pSC11-rhlI*
Nature of the series: E. coli RhlR reporter antagonism assay vs 10 μM BHL (JLD271/pJN105R2/pSC11-rhlI*). In kind it is cell-based, P. aeruginosa. Conditions: for Maximum Inhibition (%): E. coli reporter, relative to activation of 10 μM BHL alone; for inhibition at 10 µM: read-out: % inhibition (10 μM), compound at 10 μM in the presence of 10 μM BHL; for inhibition at 10 µM / inhibition at 1000 µM: negative = agonism stronger than 10 μM BHL alone; for inhibition at 1000 µM: read-out: % inhibition (1 mM), compound at 1 mM in the presence of 10 μM BHL. Here is the method:
(§1) All media and reagents for bacterial culture were purchased from commercial sources. Bacteria were cultured in Luria-Bertani broth (LB) at 37° C. with shaking at 200 rpm unless otherwise noted. The bacterial reporter strains used for this study were (i) the heterologous E. coli strain JLD271 (ΔsdiA) harboring the RhlR expression plasmid pJN105R2 and the rhlI-lacZ transcriptional fusion reporter pSC11-rhlI*, (ii) the heterologous E. coli strain JLD271 (ΔsdiA) harboring the LasR expression plasmid pJN105L and the […] transcriptional fusion reporter pSC11, and (iii) the P. aeruginosa strain PAO-JP2 (ΔlasrhlI) harboring the rhlI-gfp transcriptional fusion reporter prhlI-LVAgfp. Reporter strains JLD271/pJN105R2/pSC11-rhlI* and JLD271/pJN105L/pSC11 were grown in LB containing 100 μg/mL ampicillin and 10 μg/mL gentamicin. Freezer stocks of bacterial strains were maintained at −80° C. in 1:1 LB:50% glycerol.
To evaluate the modulatory activities of library compounds on RhlR and LasR using E. coli reporters, the strains JLD271/pJN105R2/pSC11-rhlI* and JLD271/pJN105L/pSC11 were used, respectively, as previously described.^38, 51 The following modifications were used in the RhlR agonism reporter assay, non-native compounds (10 μM or 1 mM) were compared to 1 mM BHL as the positive control. Briefly, a subculture was prepared by diluting an overnight culture 1:10 with fresh media containing 100 μg/mL ampicillin and 10 μg/mL gentamicin, and was incubated until it had grown to OD600=0.45. In all assays, L-arabinose was added to a final concentration of 4 mg/mL to induce RhlR expression. For RhlR agonism assays, activities of test compounds were measured relative to 1 mM BHL (the concentration required to induce a maximal level of RhlR activity). […] Activity was measured relative to 10 μM BHL. Inhibition was calculated by subtracting 100% from the relative activity value. Thus, 0% inhibition mimics represents no competitive displacement of 10 μM BHL by a test compound. In all assays, modifications were made to the standard Miller assay protocol to accommodate the use of the chlorophenol red-β-D-galactopyranoside (CPRG) β-galactosidase substrate. After cell lysis, 150 μL of the aqueous layer was transferred from each well of a solvent-resistant 96-well microtiter plate to the wells of a new clear, flat-bottom 96-well microtiter plate. CPRG (4 mg/mL in phosphate-buffered saline) was added to each well in 25 μL volumes. Plates were incubated at 30° C. until the positive control wells developed a red color (approximately 30 min). The amount of processed CPRG substrate was assessed by measuring the absorbance of each well at 570 nm. Enzymatic activity was calculated using the following equation: adjusted Miller units=1000·Abs570/(OD600·t·V),
(§2) where t is the incubation time of substrate with lysate and V is the volume of culture lysed.
The RhlR-modulatory activity of the J library compounds was assessed in a heterologous reporter strain (E. coli JLD271 harboring plasmids pJN105R2 and pSC11-rhlI*) in order to isolate the RhlR receptor from upstream QS regulation (e.g. regulation by LasR). Thus, the extent to which compounds were directly modulating RhlR could be determined. These assays were performed by incubating compound-treated, mid-log phase E. coli reporter cells in 96-well microtiter plates, followed by Miller assay evaluation of ß-galactosidase activity.
RhlR agonism and antagonism screens of each compound were performed initially at 10 μM.

In series [2] the target is T1, RhlR. The series is described as follows: P. aeruginosa RhlR reporter antagonism assay vs 10 μM BHL (PAO-JP2/prhlI-LVAgfp). The series is classed as cell-based. Here is the method:
FIGS. 10A and B illustrate exemplary dose-response curves for RhlR antagonism in the E. coli JLD271/pJN105R2/pSC11-rhlI* reporter strain vs. 10 μM BHL (FIG. 10A) and in the P. aeruginosa PAO-JP2/prhlI-LVAgfp reporter strain vs. 10 μM BHL (FIG. 10B).
(§3) To evaluate the RhlR-modulatory activities of selected compounds in P. aeruginosa, the ΔlasIrhlI strain PAO-JP2 harboring plasmid prhlI-LVAgfp was used as previously reported.^38 Briefly, a subculture was prepared by diluting an overnight culture 1:100 in fresh LB and was grown to OD600=0.3. […] Subculture was treated with 100 nM OdDHL (to induce native expression of RhlR) by adding the appropriate amount of OdDHL stock solution in DMSO. The subculture was then dispensed ([…] aliquots) into each synthetic compound-containing well of the microtiter plate.
(§4) Plates were incubated at 37° C. for 6 h, and GFP production was monitored by using a Synergy 2 plate reader (λex=500 nm, λem=540 nm; BioTek, Winooski, Vt.) and quantified with Gen5 1.05 software (BioTek). The final OD600 for each well was measured to normalize GFP production to cell density. All synthetic compounds were tested in triplicate, and three separate trials were performed with unique cultures. Agonism dose-response analyses were performed by testing compounds over a range of concentrations with the RhlR reporter.

The nature of series [3]: Hydrolytic stability in buffers of varying pH by HPLC. The series is classed as physicochemical. The note with it: room temperature. Here is the method:
To assess the relative stability of the thiolactone and homoserine lactone moieties, stability studies were performed as reported previously,^53 with the following changes. Compounds RN22 and E22 (50 μM) were dissolved in either 1 mM 2-(N-morpholino)-ethanesulfonic acid (MES) buffer at pH 6, or 1 mM tris(hydroxymethyl)-aminomethane (TRIS) buffer at pH 7, pH 8, or pH 9. Solutions were placed static at room temperature, and 150 μL aliquots were taken every two hours for eight hours, then again at 24 hours. Samples were immediately separated via HPLC, and the area under the curve (AUC) at 220 nm was calculated and compared to the area at t=0. […] Degradation of both compounds to the hydrolysis product was confirmed via mass spectrometry of the resulting byproduct peak.
P. aeruginosa media is observed to become more alkaline over time, making the hydrolytic instability of the homoserine lactone head group a concern in developing AHL-type modulators for use in the wild-type organism. […] To evaluate their stability in a more direct assay, the stability of thiolactone RN22 relative to its lactone homolog E22 was monitored over time and at varying pH values using HPLC. The amount of compound RN22 remaining over 24 h was compared to E22. […] Degradation products were confirmed to be the hydrolyzed lactone head groups via mass spectroscopy.

In series [4] the target is T1, RhlR. Nature of the series: E. coli RhlR reporter agonism assay (JLD271/pJN105R2/pSC11-rhlI*). The series is classed as cell-based, P. aeruginosa. Here is the method: as §1
(§5) To evaluate the modulatory activities of library compounds on RhlR and LasR using E. coli reporters, the strains JLD271/pJN105R2/pSC11-rhlI* and JLD271/pJN105L/pSC11 were used, respectively, as previously described.^38, 51 The following modifications were used in the RhlR agonism reporter assay, non-native compounds (10 μM or 1 mM) were compared to 1 mM BHL as the positive control. Briefly, a subculture was prepared by diluting an overnight culture 1:10 with fresh media containing 100 μg/mL ampicillin and 10 μg/mL gentamicin, and was incubated until it had grown to OD600=0.45. In all assays, L-arabinose was added to a final concentration of 4 mg/mL to induce RhlR expression. For RhlR agonism assays, activities of test compounds were measured relative to 1 mM BHL (the concentration required to induce a maximal level of RhlR activity). For RhlR antagonism assays, test compounds were competed against a concentration of BHL approximately equal to its EC50 value (10 μM). Activity was measured relative to 10 μM BHL. Inhibition was calculated by subtracting 100% from the relative activity value. Thus, 0% inhibition mimics represents no competitive displacement of 10 μM BHL by a test compound. In all assays, modifications were made to the standard Miller assay protocol to accommodate the use of the chlorophenol red-β-D-galactopyranoside (CPRG) β-galactosidase substrate. After cell lysis, 150 μL of the aqueous layer was transferred from each well of a solvent-resistant 96-well microtiter plate to the wells of a new clear, flat-bottom 96-well microtiter plate. CPRG (4 mg/mL in phosphate-buffered saline) was added to each well in 25 μL volumes. Plates were incubated at 30° C. until the positive control wells developed a red color (approximately 30 min). The amount of processed CPRG substrate was assessed by measuring the absorbance of each well at 570 nm. Enzymatic activity was calculated using the following equation: adjusted Miller units=1000·Abs570/(OD600·t·V),
as §2
Because LuxR-type receptors are often unstable in solution, preventing the use of in vitro assays to directly assess small molecule agonism and antagonism, reporter gene assays represent a standard method for screening small-molecule libraries for LuxR-type receptor modulation. Previously reported strains for this purpose were used in the current study.^38 Synthetic N-butanoyl L-homoserine lactone (BHL), the native ligand of RhlR, was used as the positive control for receptor activation. Commonly, agonists are measured relative to maximum possible receptor activation within a particular assay medium;^40 because the dose-response curve of BHL is distinctly shallow in these RhlR reporters, a high concentration of BHL is required to maximally activate RhlR. In this study, activation of compounds was measured relative to that elicited by 1 mM BHL (the concentration of BHL used causes no aberrant growth effects in the reporter strain). […]

Series [5] concerns the target T1, RhlR. The series is described as follows: P. aeruginosa RhlR reporter agonism assay (PAO-JP2/prhlI-LVAgfp). In kind it is cell-based. Conditions: P. aeruginosa reporter compared with E. coli reporter. Here is the method:
as §1, §3, §4
Library compounds J18 and J24, as well as controls BHL and S4, were evaluated for potency in the native genetic background of RhlR by using the P. aeruginosa strain PAO-JP2 (ΔlasIrhlI) harboring the RhlR reporter plasmid prhlI-LVAgfp (Table 3). Because the production of RhlR is dependent on LasR (in LB medium), all assays were performed in the presence of 100 nM OdDHL, enabling immediate transcription of RhlR via LasR activation. […] All compounds also retained similar potencies when screened in the P. aeruginosa background.

A further series has as its target T2, LasR (Pseudomonas aeruginosa, UniProt P25084).
T2 construct: expressed in transfected cells; host or cells: E. coli JLD271 (ΔsdiA) with pJN105L and pSC11
Nature of the series: Selectivity of RhlR agonism over LasR agonism (E. coli LasR reporter JLD271/pJN105L/pSC11). In kind it is cell-based, P. aeruginosa. Conditions: RhlR % activity divided by LasR % activity, > = negligible activity in LasR reporter. Here is the method:
as §1, §5
LasR assays were processed using the protocol for the substrate ortho-nitrophenyl-β-galactoside (ONPG) as previously described elsewhere.^53; and LasR antagonism assays were performed versus the EC50 for OdDHL (2 nM).
The selectivity of certain compounds for RhlR over LasR was measured using a LasR reporter strain (details above). Table 6 provides a comparison of selectivity of RhlR agonism over LasR agonism for exemplary compounds. Table 7 provides a comparison of selectivity of RhlR antagonism over LasR antagonism for exemplary compounds.

In series [6] the target is T1, RhlR. Nature of the series: P. aeruginosa RhlR reporter agonism assay (PAO-JP2/prhlI-LVAgfp). In kind it is cell-based.
Where [7] appears, read: read-out: Maximum Activation (%).

Entries after “also recorded” stand apart in the source; their conditions may differ. Marks after values point to notes of the source that are not given here. Some results are limits rather than exact numbers.

T1 sequence (P54292 whole entry): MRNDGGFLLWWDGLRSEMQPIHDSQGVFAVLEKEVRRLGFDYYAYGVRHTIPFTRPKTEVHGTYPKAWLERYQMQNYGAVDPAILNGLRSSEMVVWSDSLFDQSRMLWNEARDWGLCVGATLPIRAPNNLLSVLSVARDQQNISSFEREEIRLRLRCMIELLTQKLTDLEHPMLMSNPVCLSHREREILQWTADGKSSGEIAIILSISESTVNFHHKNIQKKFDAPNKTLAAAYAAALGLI
T2 sequence (P25084 whole entry): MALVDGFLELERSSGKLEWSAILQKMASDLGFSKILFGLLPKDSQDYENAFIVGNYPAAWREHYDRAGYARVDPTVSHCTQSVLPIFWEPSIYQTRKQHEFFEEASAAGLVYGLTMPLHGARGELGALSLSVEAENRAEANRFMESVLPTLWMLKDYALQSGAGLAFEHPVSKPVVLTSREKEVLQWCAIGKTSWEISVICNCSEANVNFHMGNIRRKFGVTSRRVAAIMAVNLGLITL

As for `O=C(COc1ccc(I)cc1)NC1CCOC1=O` (centres unmarked) [Compound E22, reference compound], the figures for the IC50 against RhlR [1] and at RhlR [2] were 17.3 µM and 23.9 µM, respectively. Also, the “Maximum Inhibition (%)” value at RhlR [1] is 74%; at RhlR [2] (P. aeruginosa reporter, relative to activation of 10 μM BHL alone) it was 96%. Also, the “fold change of IC50 from E. coli to P. aeruginosa reporter” value at RhlR [2] (vs 10 μM BHL) was about 1.4 fold. Besides, the “increase of maximum inhibition from E. coli to P. aeruginosa reporter” value on RhlR [2] (vs 10 μM BHL) was “more than 20%”. The half-life at 50 μM is 182 h in series [3] (pH 6, 1 mM MES buffer); 48.1 h in series [3] (pH 7, 1 mM TRIS buffer); 10.1 h in series [3] (pH 8, 1 mM TRIS buffer); 2.3 h in series [3] (pH 9, 1 mM TRIS buffer).
At RhlR [4] (compound at 10 μM, RhlR activity relative to 1 mM BHL, E. coli reporter), `O=C(NC1CCCC1)C1CCC1` [RN13] gave an activation at 10 µM of 0%. On RhlR [1], inhibition was half-maximal at 26.7 µM (IC50), the “Maximum Inhibition (%)” value is 32%, the inhibition at 10 µM came out at 24% and the inhibition at 1000 µM came to 25%. The “RhlR antagonist activity in words” value at RhlR [1] (E. coli reporter vs 10 μM BHL) is recorded as “potent antagonist activity; also recorded: two-fold increased potency as measured by IC50 over parent compound RN4; also recorded: undesirable non-monotonic behavior”. Moreover, the “RhlR agonist potency in words” value on RhlR [5] is listed as “maintained activity between the two different reporters”.
In the case of `O=C(N[C@H]1CCSC1=O)C1CCC1` [RN15], the EC50 stood at 1.72 µM at RhlR [4] and 1.65 µM at RhlR [6]. Further, the “RhlR agonist potency in words” value on RhlR [4] (dose-response, E. coli reporter) was “equipotent to the cyclobutanoic tail group parent, compound J24”. Besides, the values for the Emax on RhlR [4] (setting [7]) and on RhlR [6] (setting [7]) were 106% and 90%, respectively. Also, the inhibition at 10 µM at RhlR [1] is -85%. The inhibition at 1000 µM at RhlR [1] was -114%. Further, the “Fold selectivity of RhlR agonists over LasR agonism” value on LasR (tested concentration 1 mM) is on record as 11 fold; at LasR (tested concentration 10 μm), >88^b fold.

One may read the IC50 as the point on the concentration scale where inhibition reaches its midpoint. The term half-life denotes the time needed for the level to fall by half in the phase considered. The low end stands for rapid decline, the high end for slow decline. A word on the inhibition: it is the relative decrease from the control value, in per cent. A word on the EC50: it is the concentration at which the effect is half-maximal. Read a low EC50 as higher potency in that assay.
